# Source: ChEMBL document CHEMBL3885881, “DrugMatrix”
# Species: Rattus norvegicus
# Test: DrugMatrix - Regimen: Daily Repeat
# Format: toxicity, organism-based, Sprague-Dawley
# Design: regimen Daily Repeat, gender Male, age 6-8 weeks
# Settings: in vivo, po, route oral GAVAGE, vehicle 100 % WATER; for ABSOLUTE BASOPHIL / ABSOLUTE EOSINOPHIL / ABSOLUTE LYMPHOCYTE / ABSOLUTE MONOCYTE / ABSOLUTE SEGMENTED NEUTROPHIL / BASOPHIL / EOSINOPHIL / ERYTHROCYTE COUNT / HEMATOCRIT / HEMOGLOBIN / LEUKOCYTE COUNT / LYMPHOCYTE / MEAN CORPUSCULAR HEMOGLOBIN / MEAN CORPUSCULAR HEMOGLOBIN CONCENTRATION / MEAN CORPUSCULAR VOLUME / MONOCYTE / NEUTROPHIL / NUCLEATED RED BLOOD CELLS / PLATELET COUNT: tissue Blood; for ALANINE AMINOTRANSFERASE / ALBUMIN / ALKALINE PHOSPHATASE / ASPARTATE AMINOTRANSFERASE / BLOOD UREA NITROGEN / CARBON DIOXIDE / CHLORIDE / CHOLESTEROL / CREATINE PHOSPHOKINASE / CREATININE / GLUCOSE / LACTATE DEHYDROGENASE / LIPASE / PHOSPHORUS / POTASSIUM / SODIUM / TOTAL BILIRUBIN / TOTAL PROTEIN / URIC ACID: tissue Plasma
# [1] = 120 mg/kg, 120 h, dose level Low, time 5 day
# [2] = 1695 mg/kg, 72 h, dose level High, time 3 day
# [3] = 1695 mg/kg, 120 h, dose level High, time 5 day
smiles,measurement,setting,value
Nc1ccc(S(=O)(=O)Nc2ccnn2-c2ccccc2)cc1 [SULFAPHENAZOLE],ABSOLUTE BASOPHIL,[1],0 CELLS/uL
same,ABSOLUTE EOSINOPHIL,[1],0 CELLS/uL
same,ABSOLUTE LYMPHOCYTE,[1],12168 CELLS/uL
same,ABSOLUTE MONOCYTE,[1],171.33 CELLS/uL
same,ABSOLUTE SEGMENTED NEUTROPHIL,[1],1260.67 CELLS/uL
same,BASOPHIL,[1],0%
same,EOSINOPHIL,[1],0%
same,ERYTHROCYTE COUNT,[1],5.32 x10E6/uL
same,HEMATOCRIT,[1],32.93%
same,HEMOGLOBIN,[1],13.2 G/DL
same,LEUKOCYTE COUNT,[1],13.6 x10E3/uL
same,LYMPHOCYTE,[1],88.67%
same,MEAN CORPUSCULAR HEMOGLOBIN,[1],24.8 pg
same,MEAN CORPUSCULAR HEMOGLOBIN CONCENTRATION,[1],40.07 G/DL
same,MEAN CORPUSCULAR VOLUME,[1],61.87 fL
same,MONOCYTE,[1],1.33%
same,NEUTROPHIL,[1],10%
same,NUCLEATED RED BLOOD CELLS,[1],0 /100WBC
same,PLATELET COUNT,[1],1135.33 x10E3/uL
same,ALANINE AMINOTRANSFERASE,[1],44 u/L
same,ALBUMIN,[1],4.37 G/DL
same,ALKALINE PHOSPHATASE,[1],314.33 u/L
same,ASPARTATE AMINOTRANSFERASE,[1],85.33 u/L
same,BLOOD UREA NITROGEN,[1],17.67 mg/dL
same,CARBON DIOXIDE,[1],25 mmol/L
same,CHLORIDE,[1],101.67 MEQ/L
same,CHOLESTEROL,[1],55.33 mg/dL
same,CREATINE PHOSPHOKINASE,[1],560.67 u/L
same,CREATININE,[1],0.19 mg/dL
same,GLUCOSE,[1],147.33 mg/dL
same,LACTATE DEHYDROGENASE,[1],243.67 u/L
same,LIPASE,[1],10.67 u/L
same,PHOSPHORUS,[1],11.43 mg/dL
same,POTASSIUM,[1],6.3 MEQ/L
same,SODIUM,[1],141.23 MEQ/L
same,TOTAL BILIRUBIN,[1],0.17 mg/dL
same,TOTAL PROTEIN,[1],5.93 G/DL
same,URIC ACID,[1],1.83 mg/dL
same,ABSOLUTE BASOPHIL,[2],0 CELLS/uL
same,ABSOLUTE EOSINOPHIL,[2],148.67 CELLS/uL
same,ABSOLUTE LYMPHOCYTE,[2],12946.33 CELLS/uL
same,ABSOLUTE MONOCYTE,[2],179 CELLS/uL
same,ABSOLUTE SEGMENTED NEUTROPHIL,[2],1226 CELLS/uL
same,BASOPHIL,[2],0%
same,EOSINOPHIL,[2],1%
same,ERYTHROCYTE COUNT,[2],6.24 x10E6/uL
same,HEMATOCRIT,[2],37.43%
same,HEMOGLOBIN,[2],14.4 G/DL
same,LEUKOCYTE COUNT,[2],14.5 x10E3/uL
same,LYMPHOCYTE,[2],89.33%
same,MEAN CORPUSCULAR HEMOGLOBIN,[2],23.1 pg
same,MEAN CORPUSCULAR HEMOGLOBIN CONCENTRATION,[2],38.5 G/DL
same,MEAN CORPUSCULAR VOLUME,[2],60.03 fL
same,MONOCYTE,[2],1.33%
same,NEUTROPHIL,[2],8.33%
same,NUCLEATED RED BLOOD CELLS,[2],0.33 /100WBC
same,PLATELET COUNT,[2],1221 x10E3/uL
same,ALANINE AMINOTRANSFERASE,[2],93.67 u/L
same,ALBUMIN,[2],4.27 G/DL
same,ALKALINE PHOSPHATASE,[2],470.33 u/L
same,ASPARTATE AMINOTRANSFERASE,[2],97.33 u/L
same,BLOOD UREA NITROGEN,[2],20 mg/dL
same,CARBON DIOXIDE,[2],28.67 mmol/L
same,CHLORIDE,[2],98 MEQ/L
same,CHOLESTEROL,[2],66 mg/dL
same,CREATINE PHOSPHOKINASE,[2],349 u/L
same,CREATININE,[2],0.24 mg/dL
same,GLUCOSE,[2],138 mg/dL
same,LACTATE DEHYDROGENASE,[2],231 u/L
same,LIPASE,[2],12 u/L
same,PHOSPHORUS,[2],11.17 mg/dL
same,POTASSIUM,[2],6.38 MEQ/L
same,SODIUM,[2],138.87 MEQ/L
same,TOTAL BILIRUBIN,[2],0.17 mg/dL
same,TOTAL PROTEIN,[2],5.9 G/DL
same,URIC ACID,[2],1.43 mg/dL
same,ABSOLUTE BASOPHIL,[3],0 CELLS/uL
same,ABSOLUTE EOSINOPHIL,[3],0 CELLS/uL
same,ABSOLUTE LYMPHOCYTE,[3],12966.33 CELLS/uL
same,ABSOLUTE MONOCYTE,[3],311 CELLS/uL
same,ABSOLUTE SEGMENTED NEUTROPHIL,[3],1656 CELLS/uL
same,BASOPHIL,[3],0%
same,EOSINOPHIL,[3],0%
same,ERYTHROCYTE COUNT,[3],5.99 x10E6/uL
same,HEMATOCRIT,[3],35.5%
same,HEMOGLOBIN,[3],13.53 G/DL
same,LEUKOCYTE COUNT,[3],14.93 x10E3/uL
same,LYMPHOCYTE,[3],86.67%
same,MEAN CORPUSCULAR HEMOGLOBIN,[3],22.57 pg
same,MEAN CORPUSCULAR HEMOGLOBIN CONCENTRATION,[3],38.1 G/DL
same,MEAN CORPUSCULAR VOLUME,[3],59.27 fL
same,MONOCYTE,[3],2%
same,NEUTROPHIL,[3],11.33%
same,NUCLEATED RED BLOOD CELLS,[3],0 /100WBC
same,PLATELET COUNT,[3],1318 x10E3/uL
same,ALANINE AMINOTRANSFERASE,[3],117.33 u/L
same,ALBUMIN,[3],4.47 G/DL
same,ALKALINE PHOSPHATASE,[3],435.33 u/L
same,ASPARTATE AMINOTRANSFERASE,[3],99.67 u/L
same,BLOOD UREA NITROGEN,[3],16.33 mg/dL
same,CARBON DIOXIDE,[3],25 mmol/L
same,CHLORIDE,[3],99 MEQ/L
same,CHOLESTEROL,[3],48 mg/dL
same,CREATINE PHOSPHOKINASE,[3],444.33 u/L
same,CREATININE,[3],0.22 mg/dL
same,GLUCOSE,[3],150.33 mg/dL
same,LACTATE DEHYDROGENASE,[3],121.33 u/L
same,LIPASE,[3],12 u/L
same,PHOSPHORUS,[3],11.27 mg/dL
same,POTASSIUM,[3],5.55 MEQ/L
same,SODIUM,[3],141.73 MEQ/L
same,TOTAL BILIRUBIN,[3],0.23 mg/dL
same,TOTAL PROTEIN,[3],5.87 G/DL
same,URIC ACID,[3],1.37 mg/dL
